Experimental data: publication PMC9655618 (Cancers, 2022)

Key:
VERO cells = experiment: MTT cell viability assay; type: cell-based, monkey; settings: Primates, Vero, 72 h, 10%FBS growth media
Description: (§1) Straightforward, the tetrazolium salt 3-(4,5-methyltiazol-2yl-)-2,5diphenyl-tetrazolium bromide (MTT) (Applichen, Darmstadt, Germany) was added to cells, incubated for 2–4 h at 37 °C, and lysed in 10% SDS.

PBMC = experiment: MTT cell viability assay; type: cell-based; settings: Homo sapiens, 72 h, 10%FBS growth media
Description: as §1

MCF-7/BUS cells = experiment: MTT cell viability assay; type: cell-based, human; settings: Homo sapiens, MCF7/BUS; 72 h, 10%FBS growth media, MTT; read-out: IC50 (μM) MCF-7/BUS
Description: as §1

Hs-578T cells = experiment: MTT cell viability assay; type: cell-based, human; settings: Homo sapiens, Hs-578T, 72 h, 10%FBS growth media
Description: as §1

BT-549 cells = experiment: MTT cell viability assay; type: cell-based, human; settings: Homo sapiens, BT-549, 72 h, 10%FBS growth media
Description: as §1

MDA-MB-231 cells = experiment: MTT cell viability assay; type: cell-based, human; settings: Homo sapiens, MDA-MB-231, 72 h, 10%FBS growth media
Description: as §1

MCF-7 cells = experiment: MTT cell viability assay; type: cell-based, human; settings: Homo sapiens, MCF7, 72 h, 10%FBS growth media
Description: as §1

Ishikawa cells = experiment: MTT cell viability assay; type: cell-based, human; settings: Homo sapiens, Ishikawa, read-out: IC50 (μM) ISHIKAWA, 72 h, 10%FBS growth media
Description: as §1

MCF-10A cells = experiment: MTT cell viability assay; type: cell-based, human; settings: Homo sapiens, MCF-10A, 72 h, 10%FBS growth media
Description: as §1

SK-BR-3 cells = experiment: MTT cell viability assay; type: cell-based, human; settings: Homo sapiens, SK-BR-3, 72 h, 10%FBS growth media
Description: as §1

T47D cells = experiment: MTT cell viability assay; type: cell-based, human; settings: Homo sapiens, T47D, 72 h, 10%FBS growth media
Description: (§2) Straightforward, the tetrazolium salt 3-(4,5-methyltiazol-2yl-)-2,5diphenyl-tetrazolium bromide (MTT) (Applichen, Darmstadt, Germany) was added to cells, incubated for 2–4 h at 37 °C, and lysed in 10% SDS. The mitochondrial metabolization of the tetrazolium salt was determined by the analysis of the optical density at 595 nm, measured with the iMark microplate Reader (Bio–Rad, Irvine, CA, USA).

[1] = test system: ER+ cancer cells (i.e., MCF-7, MCF-7/BUS, T47D and Ishikawa cells); experiment: MTT cell viability, summary over ER+ cancer cells; type: cell-based; settings: Homo sapiens, read-out: IC50, viability of ER+ cancer cells, E2-non-depleted cells, text summary of Table 1 over MCF-7, MCF-7/BUS
Description: as §2

[2] = test system: STAT3 transcriptional activity in HEK293 cells; experiment: IL6-induced STAT3 transcriptional activity, Renilla reporter HEK-293 cells; settings: hIL6 10 ng/ml

What does the source list for `COc1cccc2c1C(=O)c1c(O)c3c(c(O)c1C2=O)C[C@@](O)(C(=O)CO)C[C@@H]3O[C@H]1C[C@H](N)[C@H](O)[C@H](C)O1` [DOXO, doxorubicin, reference compound]?
IC50 (VERO cells): 2.62 ± 0.24 µM; IC50 (PBMC): 1.47 ± 0.69 µM; IC50 (MCF-7/BUS cells): 0.05 ± 0.02 µM; IC50 (Hs-578T cells): 0.37 ± 0.05 µM; IC50 (BT-549 cells): 0.19 ± 0.04 µM; IC50 (MDA-MB-231 cells): 0.25 ± 0.07 µM; IC50 (MCF-7 cells): 0.07 ± 0.01 µM; IC50 (Ishikawa cells): 0.09 ± 0.03 µM; IC50 (MCF-10A cells): 0.09 ± 0.01 µM; IC50 (SK-BR-3 cells): 0.04 ± 0.01 µM; IC50 (T47D cells): 0.15 ± 0.02 µM

Which IC50 [1] does the source give for `COc1ccccc1C1=CC(O)(c2ccc([N+](=O)[O-])cc2)N(Cc2ccccc2)C1=O` (stereo not shown) [compound 49, 1-benzyl-5-hydroxy-3-(2-methoxyphenyl)-5-(4-nitrophenyl)-1H-pyrrol-2(5H)-one] here?
Its IC50 is less than 10 µM.

And the IC50 (MCF-7/BUS cells)?
The IC50 was 5 ± 1.79 µM.

What about the IC50 (Hs-578T cells) of the same molecule?
Its IC50 is greater than 10 µM.

What about the IC50 (BT-549 cells) of the same molecule?
The IC50 was greater than 10 µM.

And the IC50 (MDA-MB-231 cells)?
Its IC50 is 7.94 ± 2.07 µM.

What about the IC50 (MCF-7 cells) of the same molecule?
Its IC50 is 3.47 ± 1.12 µM.

What about the IC50 (Ishikawa cells) of the same molecule?
Its IC50 is 4.82 ± 1.84 µM.

And the IC50 (MCF-10A cells)?
The IC50 was 0.31 ± 0.03 µM.

What about the IC50 (SK-BR-3 cells) of the same molecule?
The IC50 was greater than 10 µM.

And the IC50 (T47D cells)?
Its IC50 is greater than 10 µM.

What does the source list for `COc1ccc(C2=CC(O)(c3ccc([N+](=O)[O-])cc3)N(Cc3ccccc3)C2=O)cc1` (stereo not shown) [compound 43, 1-benzyl-5-hydroxy-3-(4-methoxyphenyl)-5-(4-nitrophenyl)-1H-pyrrol-2(5H)-one]?
IC50 [1]: < 10 µM; IC50 (MCF-7/BUS cells): 2.85 ± 1.24 µM; IC50 (Hs-578T cells): > 10 µM; IC50 (BT-549 cells): 6.23 ± 3.48 µM; IC50 (MDA-MB-231 cells): > 10 µM; IC50 (MCF-7 cells): 6.54 ± 0.41 µM; IC50 (Ishikawa cells): 3.47 ± 0.94 µM; IC50 (SK-BR-3 cells): 2.16 ± 0.05 µM; IC50 (T47D cells): 8.57 ± 0.43 µM

“hIL-6: pure agonist hIL6 (10 ng/mL) used to induce STAT3 transcriptional activity” was tested. Which “maximal luciferase activity or Emax” value [2] did it give?
Its value is 10.08 ± 2.41 fold induction.
